The values below come from paper PMC6963822, “Phenolic Compounds from the Aerial Parts of Blepharis linariifolia Pers. and Their Free Radical Scavenging and Enzyme Inhibitory Activities” (Medicines, 2019).

As usually defined, the IC50 is the concentration that gives 50% inhibition.

For test [1], the target named is mushroom tyrosinase. Put plainly: Tyrosinase inhibitory activity. It counts as biochemical, Agaricus bisporus. The note with it: substrate L-tyrosine, 25 °C, pH 6.8, triplicate; read-out: Enzyme Inhibitory Activities Tyrosinase IC50. The text has this: Antioxidants are substances that scavenge free radicals and related reactive species. Free radicals amend vital body composition such as lipids and proteins, resulting in serious conditions such as inflammatory conditions, atherosclerosis, and cancerous diseases. Therefore, dietary antioxidants are undertaken for enhancing health conditions for people under precarious sanitary conditions or to prevent serious and chronic illnesses such as neurodegenerative diseases, diabetes, and hyperlipidemia. Diabetes mellitus (DM) is a metabolic disorder characterized by high blood glucose, which is likely to cause serious side effects such as retinopathy and cataracts. […] Obesity is another example of a metabolic disorder associated with several co-morbidities, with an increasing prevalence every year. Excessive lipid accumulation could be one of the causative factors for type II diabetes, as the accumulation of lipid in the pancreas causes dysfunction of insulin-producing pancreatic β-cells. […] Tyrosinase is a key enzyme in the process of melanin synthesis. It has been isolated and identified from different sources. Among them, mushroom tyrosinase, from Agaricus bisporus, is a major source and is widely used due to its high similarity and homology to human tyrosinase. Despite the important protective role of melanin against UV-sunlight radiation, excess accumulation of this pigment results in harmful skin disorders and severe cases may cause skin cancer. […] (Tokyo, Japan). […] obtained from Combi-Blocks, San Diego, USA, and arbutin was purchased from Nacalai Tesque, Inc. (Kyoto, Japan). 2-Morpholinoethanesulfonic acid monohydrate (MES) was purchased from Dojindo Chemical Research (Kumamoto, Japan). The tyrosinase inhibitory activity was evaluated using the method reported by […] et al., with slight modifications. […] The mixture was incubated at 25 °C for 10 min. Finally, 20 μL of the substrate L-tyrosine (2 mM) were added, and the absorbance was measured at 476 nm. […] Arbutin was used as the positive control. […] All the experiments were performed in triplicate. The data was analyzed using Microsoft Office Excel (2007) and results for DPPH free radical and in vitro enzyme inhibitory activities were expressed as IC50 value (μM).

Test [2] deals with T1, porcine pancreatic lipase (Sus scrofa, UniProt P00591).
T1 construct: purchased Sigma Aldrich, Co. (Tokyo, Japan)
T1 sequence (P00591 1-450): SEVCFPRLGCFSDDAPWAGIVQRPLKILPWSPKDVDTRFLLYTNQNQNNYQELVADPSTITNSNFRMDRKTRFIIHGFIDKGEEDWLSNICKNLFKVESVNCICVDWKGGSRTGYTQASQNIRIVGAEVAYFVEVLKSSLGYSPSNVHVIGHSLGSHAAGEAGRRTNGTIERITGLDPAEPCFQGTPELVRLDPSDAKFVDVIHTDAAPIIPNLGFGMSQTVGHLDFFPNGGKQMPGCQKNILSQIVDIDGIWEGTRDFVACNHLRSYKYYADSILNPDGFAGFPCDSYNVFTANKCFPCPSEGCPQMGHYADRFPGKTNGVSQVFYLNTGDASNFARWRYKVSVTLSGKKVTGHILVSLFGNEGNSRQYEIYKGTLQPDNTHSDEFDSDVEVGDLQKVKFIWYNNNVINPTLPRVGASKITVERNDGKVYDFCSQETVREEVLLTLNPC
The experiment in a line: Pancreatic lipase inhibitory activity. Type of test: biochemical. The note with it: substrate 4-methylumbelliferyl oleate, pH 7.4, triplicate; for IC50: read-out: Enzyme Inhibitory Activities Lipase IC50. The text has this: (§1) 1,1-Diphenyl-2-picrylhydrazyl (DPPH) and the enzymes α-glucosidase (from Saccharomyces cerevisiae), porcine pancreatic lipase, and mushroom tyrosinase were purchased from Sigma Aldrich, Co. (Tokyo, Japan). […] Cetilistat was obtained from Combi-Blocks, San Diego, USA, and arbutin was purchased from Nacalai Tesque, Inc. (Kyoto, Japan). 2-Morpholinoethanesulfonic acid monohydrate (MES) was purchased from Dojindo Chemical Research (Kumamoto, Japan).
Evaluation of pancreatic lipase inhibitory activity was performed by measuring the release of 4-methylumbelliferone (4MUF) from the substrate 4-methylumbelliferyl oleate (4MUFO) as reported by Bitou et al. with slight modifications. Briefly, 50 μL of the test sample and 50 μL of pancreatic lipase (100 μg/mL in phosphate buffer of 0.2 M, pH 7.4) were mixed and incubated at room temperature for 10 min. Afterward, 100 μL of the substrate 4MUFO (0.5 mM) was added. After 10 min, the fluorescence from the release of 4MUF was measured using a microplate reader with excitation and emission wavelengths of 355 and 460 nm, respectively. Cetilistat was used as the positive control. The percentage of pancreatic lipase inhibitory activity was calculated using the following equation: Inhibition (%) = (1 − (As/Ac) × 100), where As and Ac are the absorbance of sample and control, respectively.
(§2) All the experiments were performed in triplicate. The data was analyzed using Microsoft Office Excel (2007) and results for DPPH free radical and in vitro enzyme inhibitory activities were expressed as IC50 value (μM).

Test [3] can be described thus: DPPH free radical scavenging activity. The note with it: 20 min, room temperature, absorbance at 520 nm, triplicate. As to the method:
The antioxidant potential was determined using the 1,1- diphenyl-2-picrylhydrazyl (DPPH) radical scavenging method with minor modifications. In a 96-well plate, 25 μL of compound solution of different concentrations were added, followed by the addition of 75 μL of 50% EtOH and 50 μL MES buffer (200 mM, pH = 6.0). Finally, 50 μL of freshly prepared DPPH solution in ethanol (800 μM) were added, and the assay plate was incubated for 20 min in the dark at room temperature. The antioxidant activity corresponding to scavenging of DPPH radicals was measured at 520 nm with UV spectrophotometer using the following formula: Radical scavenging activity (%) = 100 × (A − B)/A, where A is the control absorbance of DPPH radicals without samples and B is the absorbance after reacting with samples. Trolox was used as the positive control.
as §2
For orientation: The DPPH test is a chemical assay of radical scavenging.

Test [4] addresses α-glucosidase. The experiment in a line: α-Glucosidase inhibitory activity. It counts as biochemical, Saccharomyces cerevisiae. The note with it: substrate p-nitrophenyl-α-D-glucopyranoside, 37 °C, pH 6.8, triplicate; for IC50: read-out: Enzyme Inhibitory Activities α-Glucosidase IC50.
Description: as §1
The α-glucosidase inhibitory activity was determined according to the method reported by Jabeen et al. with slight modifications. In 96-well plate, 60 μL of 0.2 M phosphate buffer (pH = 6.8), 10 μL of the test sample (final concentration range of 100 to 1.56 μg/mL), and 10 μL of α-glucosidase solution (prepared in phosphate buffer to obtain 1 U/mL) were added. The mixture was incubated at 37 °C for 5 min and 20 μL of 4 mM p-nitrophenyl-α-D-glucopyranoside substrate were added. After 12 min of incubation at 37 °C, the released p-nitrophenol was measured at 405 nm using a spectrophotometer. The percentage inhibition of α-glucosidase activity was calculated using the equation: Inhibition (%) = (1 − (Aa − Ab)/(Ac − Ad)) × 100, in which Aa is the absorbance with test sample and enzyme, Ab is the absorbance with test samples but without enzyme, Ac is the absorbance with enzyme but without test sample, and Ad is the absorbance without test samples and enzymes.
as §2

The test system of test [5] is mushroom tyrosinase. The note with it: cited from earlier work.
Test [6] deals with α-glucosidase. Further details: method as in PMID 27581205. The note with it: cited from earlier work.

Turning to `O=C(/C=C/c1ccc(O)cc1)OC[C@H]1O[C@@H](Oc2cc(O)c3c(c2)OC(c2ccc(O)cc2)CC3=O)[C@H](O)[C@@H](O)[C@@H]1O` (some centres unmarked) [6″-O-p-Coumaroylprunin (4), 6″-O-p-coumaroylprunin], the IC50 on mushroom tyrosinase [1] was found to be 136.1 ± 0.78 µM; in test [2], 2.25 ± 0.17 µM; in test [3], 186.2 ± 1.19 µM; on α-glucosidase [4] it was 46.3 ± 2.92 µM. Besides, the “Enzyme Inhibitory Activities Lipase IC50” value in test [2] was “active”.

For the compound `CCCCCCCCCCCCCCCCOc1nc2ccc(C)cc2c(=O)o1` [Cetilistat, reference compound], the IC50 in test [2] worked out at 18.4 ± 1.71 µM.

Consider `C[C@@H]1O[C@@H](O[C@@H]2[C@@H](O)[C@H](OCCc3ccc(O)c(O)c3)O[C@H](CO)[C@H]2OC(=O)/C=C/c2ccc(O)c(O)c2)[C@H](O)[C@H](O)[C@H]1O` [Verbascoside (1), verbascoside], for which the values for the IC50 (at mushroom tyrosinase [1]; in test [3]) were 97.4 ± 2.48 µM and 22.03 ± 0.04 µM, respectively. In addition, the “Enzyme Inhibitory Activities Lipase IC50” value in test [2] was “inactive”. Further, the “Enzyme Inhibitory Activities α-Glucosidase IC50” value on α-glucosidase [4] is reported as “neither showed inhibitory activities”.

`COc1cc(C(=O)O)ccc1O` [Vanillic acid (2), vanillic acid]: the “Enzyme Inhibitory Activities Lipase IC50” value in test [2] was “inactive”. The same compound yielded an IC50 in test [3] of 217 ± 3.01 µM. Further, in the test with mushroom tyrosinase [5], the “inhibitory activity for mushroom tyrosinase” value is on record as “did not show any inhibitory activity” and the tyrosinase inhibitory activity entry is “weak”. The “Enzyme Inhibitory Activities α-Glucosidase IC50” value on α-glucosidase [4] was “neither showed inhibitory activities”.

In test [3], `Cc1c(C)c2c(c(C)c1O)CCC(C)(C(=O)O)O2` (centres unmarked) [Trolox, 6-Hydroxy-2,5,7,8-tetramethylchroman-2-carboxylic acid, reference compound] had an IC50 of 39.07 ± 0.31 µM.

Regarding `OC[C@H]1O[C@@H](Oc2ccc(O)cc2)[C@H](O)[C@@H](O)[C@@H]1O` [Arbutin, arbutin, reference compound], at mushroom tyrosinase [1], the IC50 is 436 ± 3.71 µM.

Regarding `O=c1cc(-c2ccc(O)cc2)oc2cc(O)cc(O)c12` [Apigenin (3), apigenin], the “mode of α-glucosidase inhibition” value in the test on α-glucosidase [6] is given as “reversibly inhibit α-glucosidase in a noncompetitive manner”. For the same compound, the half-maximal inhibitory concentration (IC50) at mushroom tyrosinase [1] was determined as 23.1 ± 1.83 µM; in test [2], 12.5 ± 2.04 µM; in test [3], 386.3 ± 3.42 µM; at α-glucosidase [4], 34.7 ± 1.78 µM. In addition, the “Enzyme Inhibitory Activities Lipase IC50” value in test [2] is “active”.
